{"source": "PubChem BioAssay AID1590", "about": "(NINDS Approved Drug Screening Program, 2009)", "tested_on": "PC12 inducible Htt-N63-148Q toxicity rescue", "assay": "rescue from Htt-N63-148Q induced toxicity, dose response, PC12 cells, inducible expression, ROSShtt (AID 1590)", "note": "Results filed as inconclusive are left out."}
{"smiles": "O=C(O)C1CCCNC1", "note": "(stereo unspecified)", "values": [{"measurement": "EC50", "result": 10000, "unit": "nM"}]}
{"smiles": "CCCNCC(O)COc1ccccc1C(=O)CCc1ccccc1", "note": "(stereo unspecified)", "values": [{"measurement": "EC50", "result": 10000, "unit": "nM"}]}
{"smiles": "CC(C)NCC(O)c1ccc(O)c(O)c1", "note": "(stereo unspecified)", "values": [{"measurement": "EC50", "result": 15000, "unit": "nM"}]}
{"smiles": "CN(C)[C@@H]1C(=O)C(C(N)=O)=C(O)[C@@]2(O)C(=O)C3=C(O)c4c(O)cccc4[C@@](C)(O)[C@H]3C[C@@H]12", "values": [{"measurement": "EC50", "result": 100, "unit": "nM"}]}
{"smiles": "C=C1c2c(Cl)ccc(O)c2C(O)=C2C(=O)[C@]3(O)C(O)=C(C(N)=O)C(=O)[C@@H](N(C)C)[C@@H]3[C@@H](O)[C@H]12", "values": [{"measurement": "EC50", "result": 10, "unit": "nM"}]}
{"smiles": "CCN(Cc1ccncc1)C(=O)C(CO)c1ccccc1", "note": "(stereo unspecified)", "values": [{"measurement": "EC50", "result": 10, "unit": "nM"}]}
{"smiles": "N[C@H](C(=O)O)[C@@H]1CC(Cl)=NO1", "values": [{"measurement": "EC50", "result": 10000, "unit": "nM"}]}
{"smiles": "CN(C)[C@@H]1C(=O)C(C(N)=O)=C(O)[C@@]2(O)C(=O)C3=C(O)c4c(O)cccc4[C@@](C)(O)[C@H]3[C@H](O)[C@@H]12", "values": [{"measurement": "EC50", "result": 1000, "unit": "nM"}]}
{"smiles": "COc1c(C)c2c(c(O)c1C/C=C(\\C)CCC(=O)O)C(=O)OC2", "values": [{"measurement": "EC50", "result": 10000, "unit": "nM"}]}
{"smiles": "CN(C)[C@@H]1C(=O)C(C(N)=O)=C(O)[C@@]2(O)C(=O)C3=C(O)c4c(O)ccc(Cl)c4[C@@H](O)[C@H]3C[C@@H]12", "values": [{"measurement": "EC50", "result": 1000, "unit": "nM"}]}
{"smiles": "C=C1c2cccc(O)c2C(O)=C2C(=O)[C@]3(O)C(O)=C(C(N)=O)C(=O)[C@@H](N(C)C)[C@@H]3[C@@H](O)[C@H]12", "values": [{"measurement": "EC50", "result": 10, "unit": "nM"}]}
